This note sets out measurements from PMC10257043 (Molecular Plant Pathology, 2023).

For one data set, the target named is T1, Uvi2 (Ustilago hordei, UniProt I2G262).
T1 sequence (I2G262 22-243): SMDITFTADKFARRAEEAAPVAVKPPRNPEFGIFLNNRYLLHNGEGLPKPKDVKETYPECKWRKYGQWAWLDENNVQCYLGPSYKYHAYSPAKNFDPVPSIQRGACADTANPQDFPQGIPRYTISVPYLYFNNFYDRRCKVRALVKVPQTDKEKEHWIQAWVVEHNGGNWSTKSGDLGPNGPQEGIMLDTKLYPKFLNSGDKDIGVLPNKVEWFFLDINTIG
The experiment in a line: microscale thermophoresis. In kind it is binding. To be noted: MST as for Cpl1.

The data set “SEC-MALS” concerns the molecule itself. The experiment in a line: SEC-MALS. In general terms: SEC sorts molecules by how far they enter the pores of the column.

For `CC(=O)N[C@H]1[C@H](O[C@H]2[C@H](O)[C@@H](NC(C)=O)C(O)O[C@@H]2CO)O[C@H](CO)[C@@H](O)[C@@H]1O` (some centres unmarked) [chitobiose], at Uvi2, the Kd (commonly the free concentration of one partner at which half of the binding sites on the other are occupied at equilibrium, for simple one-to-one binding) worked out at 15 ± 3.72 µM.

B1: Uvi2 (UHOR_02700 gene product), the Cpl1 homologue from Ustilago hordei, recombinant (natural protein)
chain: T1 sequence (I2G262 22-243)
In the case of B1, the stoichiometry N (as a rule, the number of molecules, sites or subunits per partner or assembly) in the data set “SEC-MALS” was determined as 2.
